Results: patent US10004773B2, “Plant compositions and methods and uses thereof for treating elevated glucocorticoid related disorders, and anxiety” (University of Ottawa, priority 2012, dated 2018)

Test system: nursery piglets
Assay: Feeding study in weaned nursery piglets
Assay type: in vivo, pig
Procedure: The test materials used in the study were the Souroubea gilgii and purified betulinic acid. The Souroubea gigli plant samples (labelled SS for Souroubea sp.) were harvested from the canals in Tortuguero, Costa Rica. The samples were chipped, dried and powdered. Samples were dried overnight in a commercial plant drier at 35° C. and ground to 1 mm mesh.
The objective of the study was to investigate the production performance and stress related responses in nursery piglets that were fed a supplemented of either dried Souroubea gilgii plant material (SS) or one of its active anxiolytic compounds, purified betulinic acid (BA). The following parameters were evaluated: (1) plasma levels of Acute Phase Proteins (APP) and cortisol, (2) behavioral and stress related aggressive interactions and injuries (aggressive pushing, number of fights and the duration of fights in seconds), (3) production performance parameters (average daily gain (ADG), feed intake, feed efficiency (kg feed/kg body weight gain)) and (4) health evaluation (incidence of disease, disease treatments and deaths).
The study included 300 piglets that were 21 days of age at the start of the experiment (day of weaning and first day of treatment). The piglets were treated at days 0 and 21 and monitored over a 39 day period. The pigs were 60 days of age at the end of the study. Pigs were randomly assigned to one of five treatment groups, with 60 pigs in each group: (1) Group A. untreated control, (2) Group B. 0.5 mg BA/kg body weight, (3) Group C. 1 mg BA/kg body weight, (4) Group D. 2 mg BA/kg body weight and (5) Group E. SS group, 500 mg ground SS leaves/kg body weight (BA concentration equivalent to 0.5 mg BA/kg body weight).
Blood samples from 8 pigs in each treatment group were drawn on days 0, 2, 7, 14, 21 and 39 for a total of 240 blood samples, to determine plasma APP and cortisol levels. The same pigs from each treatment group were used for each blood sample day. Pigs were also weighed and feed intake was measured on these days to calculate performance parameters.

C=C(C)[C@@H]1CC[C@]2(C(=O)O)CC[C@]3(C)[C@H](CC[C@@H]4[C@@]5(C)CC[C@H](O)C(C)(C)[C@@H]5CC[C@]43C)[C@@H]12 [BA, betulinic acid]
number of wounds (2 mg/kg (Group D)): appeared to reduce | aggressive behavior and extent of injuries (BA doses below 2 mg/kg): little effect | plasma cortisol levels (day 2, Group C 1 mg/kg BA, vs Groups A and B, p<0.01): significantly lower | plasma cortisol levels (day 2, Group D 2 mg/kg BA, vs Groups A and B, p<0.01): significantly lower | plasma cortisol levels (days 7 and 14, Group D 2 mg BA/kg, vs Group A, p<0.05): significantly lower | plasma cortisol levels (first 14 days post-weaning, 2 mg BA/kg): significantly reduced | dose required to reduce plasma cortisol in the first days after weaning (piglets): 1 mg BA/kg
